Reference: patent US20050209278A1, “Piperidinyl- and piperazinyl-sulfonylmethyl hydroxamic acids and their use as protease inhibitors” (priority 2002, published 2005)
Structures can show the parent of a compound that is named as a salt. Where two headings read alike, the source gives them in different places.

Columns and labels:
Assay type in all cases: biochemical
[1] = target: T1, MMP-9 (Homo sapiens, UniProt P14780); test: MMP-9 inhibition (in vitro Ki)
T1 construct: made in house; host or cells: MMP-9-transfected HT1080 cells (spent media)
T1 sequence (P14780 107-707 limits assumed): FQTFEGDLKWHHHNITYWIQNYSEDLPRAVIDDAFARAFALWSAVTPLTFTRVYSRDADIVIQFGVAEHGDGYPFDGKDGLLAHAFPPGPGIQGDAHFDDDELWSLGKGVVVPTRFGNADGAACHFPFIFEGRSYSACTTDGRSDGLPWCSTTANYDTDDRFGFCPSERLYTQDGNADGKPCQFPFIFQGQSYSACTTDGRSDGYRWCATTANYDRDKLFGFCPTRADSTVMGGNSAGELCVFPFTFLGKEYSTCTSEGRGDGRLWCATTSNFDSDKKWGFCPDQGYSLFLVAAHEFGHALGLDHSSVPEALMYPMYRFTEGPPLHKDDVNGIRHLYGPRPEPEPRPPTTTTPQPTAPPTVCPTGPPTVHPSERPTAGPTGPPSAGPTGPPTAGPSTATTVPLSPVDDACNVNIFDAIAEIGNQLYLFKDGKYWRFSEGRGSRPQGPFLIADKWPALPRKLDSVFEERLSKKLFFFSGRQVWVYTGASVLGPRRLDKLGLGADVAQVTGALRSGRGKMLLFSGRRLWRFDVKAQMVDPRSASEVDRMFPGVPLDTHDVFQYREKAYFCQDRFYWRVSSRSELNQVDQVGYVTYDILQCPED

[2] = target: T2, MMP-1 (Homo sapiens, UniProt P03956); test: MMP-1 inhibition (in vitro Ki)
T2 construct: made in house; host or cells: MMP-1-transfected HT-1080 cells (spent media)
T2 sequence (P03956 100-469): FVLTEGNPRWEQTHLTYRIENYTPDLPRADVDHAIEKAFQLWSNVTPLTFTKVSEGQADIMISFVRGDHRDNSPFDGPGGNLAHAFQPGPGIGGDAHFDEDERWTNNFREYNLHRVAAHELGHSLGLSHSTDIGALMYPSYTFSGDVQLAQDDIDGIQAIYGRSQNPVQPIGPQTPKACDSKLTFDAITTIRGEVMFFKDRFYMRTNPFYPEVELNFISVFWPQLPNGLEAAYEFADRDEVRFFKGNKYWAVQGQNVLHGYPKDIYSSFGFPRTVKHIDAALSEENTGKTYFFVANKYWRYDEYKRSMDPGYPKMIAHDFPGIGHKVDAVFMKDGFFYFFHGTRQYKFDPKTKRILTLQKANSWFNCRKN

[3] = target: T3, MMP-14 (Homo sapiens, UniProt P50281); test: MMP-14 inhibition (in vitro Ki)
T3 construct: The catalytic domain enzyme was expressed in E. coli inclusion bodies, solubilized in urea; made in house

[4] = target: T4, MMP-2 (Homo sapiens, UniProt P08253); test: MMP-2 inhibition (in vitro Ki)
T4 construct: made in house; host or cells: MMP-2-transfected p2AHT2 cells
T4 sequence (P08253 110-660): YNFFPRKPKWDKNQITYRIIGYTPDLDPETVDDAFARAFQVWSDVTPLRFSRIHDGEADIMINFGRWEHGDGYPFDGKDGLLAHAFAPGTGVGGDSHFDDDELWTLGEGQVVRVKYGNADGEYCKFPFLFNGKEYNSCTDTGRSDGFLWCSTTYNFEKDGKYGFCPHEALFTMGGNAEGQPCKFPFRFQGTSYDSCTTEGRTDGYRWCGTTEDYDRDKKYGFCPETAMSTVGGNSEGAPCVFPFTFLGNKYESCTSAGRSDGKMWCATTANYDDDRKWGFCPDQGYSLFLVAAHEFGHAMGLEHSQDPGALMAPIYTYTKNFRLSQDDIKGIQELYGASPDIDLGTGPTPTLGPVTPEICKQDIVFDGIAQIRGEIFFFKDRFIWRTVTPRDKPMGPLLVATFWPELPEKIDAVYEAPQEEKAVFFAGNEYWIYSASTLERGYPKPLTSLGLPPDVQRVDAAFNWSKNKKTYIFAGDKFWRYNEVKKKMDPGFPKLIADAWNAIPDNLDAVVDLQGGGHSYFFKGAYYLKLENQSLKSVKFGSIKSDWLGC

[5] = target: T5, MMP-13 (Homo sapiens, UniProt P45452); test: MMP-13 inhibition (in vitro Ki)
T5 construct: made in house; host or cells: baculovirus / insect cells

[6] = Table 9, read-out: MMP-9 Ki (IC-50)
[7] = Table 9, read-out: MMP-1 Ki (IC-50)
[8] = Table 9, read-out: MMP-14 Ki (IC-50)
[9] = Table 9, read-out: MMP-2 Ki (IC-50)
[10] = Table 9, read-out: MMP-13 Ki (IC-50)

Ki [1, 6]	Ki [2, 7]	Ki [3, 8]	Ki [4, 9]	Ki [5, 10]	Compound	further results
					CCCCOCCOC1CCN(S(=O)(=O)C2(C(=O)NO)CCOCC2)CC1 [Example A36H]	Ki ([1]; Table 8, read-out: MMP-9 Ki): 45.7 nM; Ki ([2]; Table 8, read-out: MMP-1 Ki): > 10 µM; Ki ([3]; Table 8, read-out: MMP-14 Ki): > 10 µM; Ki ([4]; Table 8, read-out: MMP-2 Ki): 60.1 nM; Ki ([5]; Table 8, read-out: MMP-13 Ki): 70.5 nM
					O=C(CCCCC1CCN(S(=O)(=O)C2(C(=O)NO)CCOCC2)CC1)N1CCc2ccccc21 [Example B1, (4-({4-[5-(2,3-dihydro-1H-indol-1-yl)-5-oxopentyl]piperidin-1-yl}sulfonyl)-N-hydroxytetrahydro-2H-pyran-4-carboxamide)]	Ki ([1]; Table 10, read-out: MMP-9 Ki): 380 nM; Ki ([2]; Table 10, read-out: MMP-1 Ki): 0.482 µM; Ki ([3]; Table 10, read-out: MMP-14 Ki): > 10 µM; Ki ([4]; Table 10, read-out: MMP-2 Ki): 30.7 nM; Ki ([5]; Table 10, read-out: MMP-13 Ki): 0.229 nM
0.54 nM	4.18 µM	0.604 µM	0.42 nM	0.31 nM	COCC#Cc1ccc(C2CCN(S(=O)(=O)C3(C(=O)NO)CCOCC3)CC2)nc1 [Example A171]	
0.194 nM	4.51 µM	2.29 µM	1.15 nM	0.301 nM	O=C(NO)C1(S(=O)(=O)N2CCC(c3ccc(COCC4CC4)cn3)CC2)CCOCC1 [Example A162]	
0.24 nM	3.44 µM	0.763 µM	0.68 nM	0.14 nM	CC(C)CC#Cc1ccc(C2CCN(S(=O)(=O)C3(C(=O)NO)CCOCC3)CC2)nc1 [Example A138]	
336 nM	1.05 µM	> 10 µM	92.3 nM	0.82 nM	CN(C(=O)CCCCC1CCN(S(=O)(=O)C2(C(=O)NO)CCOCC2)CC1)c1ccc(F)cc1 [Example A93]	
2.03 nM	4.3 µM	1.15 µM	0.33 nM	0.48 nM	COC(=O)CCCC#Cc1ccc(C2CCN(S(=O)(=O)C3(C(=O)NO)CCOCC3)CC2)nc1 [Example A136]	
274 nM	4.44 µM	> 10 µM	213 nM	0.92 nM	O=C(/C=C/C=C/C1CCN(S(=O)(=O)C2(C(=O)NO)CCOCC2)CC1)N1C[C@H]2CCCC[C@H]2C1 [Example A81]	
					O=C(NO)C1(S(=O)(=O)N2CCC(OCCCCCCC(F)(F)F)CC2)CCOCC1 [Example A48, 4-[4-(7,7,7-trifluoro-heptyloxy)-piperidine-1-sulfonyl]-tetrahydro-pyran-4-carboxylic Acid Hydroxyamide]	Ki ([1]; Table 8, read-out: MMP-9 Ki): 8.23 nM; Ki ([2]; Table 8, read-out: MMP-1 Ki): > 10 µM; Ki ([3]; Table 8, read-out: MMP-14 Ki): 2.71 µM; Ki ([4]; Table 8, read-out: MMP-2 Ki): 3.49 nM; Ki ([5]; Table 8, read-out: MMP-13 Ki): 1.13 nM
					CCC(CC)(C(=O)NO)S(=O)(=O)N1CCC(c2ccc(CCC(F)(F)C(F)(F)F)cn2)CC1 [Example A60, 2-ethyl-N-hydroxy-2-({4-[5-(3,3,4,4,4-pentafluorobutyl)pyridin-2-yl]piperidin-1-yl}sulfonyl)butanamide Hydrochloride]	Ki ([1]; Table 8, read-out: MMP-9 Ki): 0.63 nM; Ki ([2]; Table 8, read-out: MMP-1 Ki): 9.18 µM; Ki ([3]; Table 8, read-out: MMP-14 Ki): 6.07 µM; Ki ([4]; Table 8, read-out: MMP-2 Ki): 1.23 nM; Ki ([5]; Table 8, read-out: MMP-13 Ki): 0.4 nM
0.29 nM	> 10 µM	5.1 µM	0.65 nM	0.23 nM	O=C(NO)C1(S(=O)(=O)N2CCC(c3ccc(CCC(F)(F)C(F)(F)F)cn3)CC2)CCN(C2CC2)CC1 [Example A204]	
1520 nM	> 10 µM	> 10 µM	958 nM	22.2 nM	CN(C(=O)CCCC1CCN(S(=O)(=O)C2(C(=O)NO)CCOCC2)CC1)C1CCCCC1 [Example A144]	
0.57 nM	> 10 µM	1.91 µM	1.2 nM	0.34 nM	Cc1ccc(N2CCC(C(=O)NO)(S(=O)(=O)N3CCC(c4ccc(CCC(F)(F)C(F)(F)F)cn4)CC3)CC2)cn1 [Example A131]	
1.77 nM	> 10 µM	5.06 µM	1.93 nM	1.03 nM	COCCCc1ccc(C2CCN(S(=O)(=O)C3(C(=O)NO)CCOCC3)CC2)nc1 [Example A166]	
					CC(C)CCCOC1CCN(S(=O)(=O)C2(C(=O)NO)CCOCC2)CC1 [Example A36D]	Ki ([1]; Table 8, read-out: MMP-9 Ki): 39.1 nM; Ki ([2]; Table 8, read-out: MMP-1 Ki): > 10 µM; Ki ([3]; Table 8, read-out: MMP-14 Ki): 4.06 µM; Ki ([4]; Table 8, read-out: MMP-2 Ki): 11.9 nM; Ki ([5]; Table 8, read-out: MMP-13 Ki): 19.9 nM
241 nM	0.356 µM	> 10 µM	50.8 nM	0.79 nM	CN(Cc1ccco1)C(=O)CCCCC1CCN(S(=O)(=O)C2(C(=O)NO)CCOCC2)CC1 [Example A99]	
2970 nM	> 10 µM	> 10 µM	63 nM	42.2 nM	CCS(=O)(=O)c1ccc(N2CCN(S(=O)(=O)C3(C(=O)NO)CCOCC3)CC2)cc1 [Example A164]	
0.84 nM	0.287 µM	0.287 µM	0.06 nM	0.04 nM	O=C(NO)C1(S(=O)(=O)N2CCN(c3ccc(-c4nnn(CC(F)(F)F)n4)cc3)CC2)CCOCC1 [Example A199]	
					O=C(NO)C1(S(=O)(=O)N2CCC(c3ccc(OCC(F)(F)C(F)(F)F)cn3)CC2)CCOCC1 [Example A58, N-hydroxy-4-({4-[5-(2,2,3,3,3-pentafluoropropoxy)pyridin-2-yl]piperidin-1-yl}sulfonyl)tetrahydro-2H-pyran-4-carboxamide Hydrochloride]	Ki ([1]; Table 8, read-out: MMP-9 Ki): 1.37 nM; Ki ([2]; Table 8, read-out: MMP-1 Ki): 1.55 µM; Ki ([3]; Table 8, read-out: MMP-14 Ki): 6.23 µM; Ki ([4]; Table 8, read-out: MMP-2 Ki): 0.52 nM; Ki ([5]; Table 8, read-out: MMP-13 Ki): 0.24 nM
592 nM	0.496 µM	> 10 µM	135 nM	1.63 nM	O=C(CCCCC1CCN(S(=O)(=O)C2(C(=O)NO)CCOCC2)CC1)N1CCCC1 [Example A97]	
					O=C(NO)C1(S(=O)(=O)N2CCC(CCCCCC(F)(F)F)CC2)CCOCC1 [Example A43, 4-[4-(6,6,6-Trifluoro-hexyl)-piperidine-1-sulfonyl]-tetrahydro-pyran-4-carboxylic Acid Hydroxyamide]	Ki ([1]; Table 8, read-out: MMP-9 Ki): 0.19 nM; Ki ([2]; Table 8, read-out: MMP-1 Ki): 3.1 µM; Ki ([3]; Table 8, read-out: MMP-14 Ki): 0.757 µM; Ki ([4]; Table 8, read-out: MMP-2 Ki): 0.33 nM; Ki ([5]; Table 8, read-out: MMP-13 Ki): 0.58 nM
13.2 nM	> 10 µM	1.77 µM	5.27 nM	0.45 nM	O=C(NO)C1(S(=O)(=O)N2CCC(c3ccc(CCc4ccccc4)cn3)CC2)CCOCC1 [Example A100]	
0.979 nM	> 10 µM	7.21 µM	1.67 nM	0.647 nM	O=C(NO)C1(S(=O)(=O)N2CCC(c3ccc(CCC(F)(F)C(F)(F)F)cn3)CC2)CCN(c2cccnc2)CC1 [Example A165]	
					O=C(NO)C1(S(=O)(=O)N2CCC(CCCCCOCC(F)(F)F)CC2)CCOCC1 [Example A35, 4-{4-[5-(2,2,2-trifluoro-ethoxy)-pentyl]-piperidine-1-sulfonyl}-tetrahydro-pyran-4-carboxylic Acid Hydroxyamide]	Ki ([1]; Table 8, read-out: MMP-9 Ki): 2.68 nM; Ki ([2]; Table 8, read-out: MMP-1 Ki): 5.29 µM; Ki ([3]; Table 8, read-out: MMP-14 Ki): 1.71 µM; Ki ([4]; Table 8, read-out: MMP-2 Ki): 2.22 nM; Ki ([5]; Table 8, read-out: MMP-13 Ki): 0.28 nM
					O=C(NO)C1(S(=O)(=O)N2CCC(c3cnc(CCC(F)(F)C(F)(F)F)cn3)CC2)CCOCC1 [Example A65, N-hydroxy-4-({4-[5-(3,3,4,4,4-pentafluorobutyl)pyrazin-2-yl]piperidin-1-yl}sulfonyl)tetrahydro-2H-pyran-4-carboxamide]	Ki ([1]; Table 8, read-out: MMP-9 Ki): 0.19 nM; Ki ([2]; Table 8, read-out: MMP-1 Ki): > 10 µM; Ki ([3]; Table 8, read-out: MMP-14 Ki): 3.87 µM; Ki ([4]; Table 8, read-out: MMP-2 Ki): 2.15 nM; Ki ([5]; Table 8, read-out: MMP-13 Ki): 0.47 nM
348 nM	6.9 µM	> 10 µM	219 nM	3.4 nM	CN(Cc1ccco1)C(=O)CCCC1CCN(S(=O)(=O)C2(C(=O)NO)CCOCC2)CC1 [Example A141]	
1630 nM	1.49 µM	> 10 µM	225 nM	2.53 nM	CN(C(=O)CCCCC1CCN(S(=O)(=O)C2(C(=O)NO)CCOCC2)CC1)c1ccc(OC(F)(F)F)cc1 [Example A163]	
0.16 nM	0.716 µM	0.14 µM	0.22 nM	0.09 nM	CC1(C)O[C@H]2C[C@@](C(=O)NO)(S(=O)(=O)N3CCC(c4ccc(CCC(F)(F)C(F)(F)F)cn4)CC3)C[C@H]2O1 [Example A73]	
